From the Kinase Knowledgebase extract (Sharma et al. 2016)

Target: EGFR (human) (UniProt P00533)
Details: hl-60

EGFR (human), sequence (P00533 whole entry, looked up): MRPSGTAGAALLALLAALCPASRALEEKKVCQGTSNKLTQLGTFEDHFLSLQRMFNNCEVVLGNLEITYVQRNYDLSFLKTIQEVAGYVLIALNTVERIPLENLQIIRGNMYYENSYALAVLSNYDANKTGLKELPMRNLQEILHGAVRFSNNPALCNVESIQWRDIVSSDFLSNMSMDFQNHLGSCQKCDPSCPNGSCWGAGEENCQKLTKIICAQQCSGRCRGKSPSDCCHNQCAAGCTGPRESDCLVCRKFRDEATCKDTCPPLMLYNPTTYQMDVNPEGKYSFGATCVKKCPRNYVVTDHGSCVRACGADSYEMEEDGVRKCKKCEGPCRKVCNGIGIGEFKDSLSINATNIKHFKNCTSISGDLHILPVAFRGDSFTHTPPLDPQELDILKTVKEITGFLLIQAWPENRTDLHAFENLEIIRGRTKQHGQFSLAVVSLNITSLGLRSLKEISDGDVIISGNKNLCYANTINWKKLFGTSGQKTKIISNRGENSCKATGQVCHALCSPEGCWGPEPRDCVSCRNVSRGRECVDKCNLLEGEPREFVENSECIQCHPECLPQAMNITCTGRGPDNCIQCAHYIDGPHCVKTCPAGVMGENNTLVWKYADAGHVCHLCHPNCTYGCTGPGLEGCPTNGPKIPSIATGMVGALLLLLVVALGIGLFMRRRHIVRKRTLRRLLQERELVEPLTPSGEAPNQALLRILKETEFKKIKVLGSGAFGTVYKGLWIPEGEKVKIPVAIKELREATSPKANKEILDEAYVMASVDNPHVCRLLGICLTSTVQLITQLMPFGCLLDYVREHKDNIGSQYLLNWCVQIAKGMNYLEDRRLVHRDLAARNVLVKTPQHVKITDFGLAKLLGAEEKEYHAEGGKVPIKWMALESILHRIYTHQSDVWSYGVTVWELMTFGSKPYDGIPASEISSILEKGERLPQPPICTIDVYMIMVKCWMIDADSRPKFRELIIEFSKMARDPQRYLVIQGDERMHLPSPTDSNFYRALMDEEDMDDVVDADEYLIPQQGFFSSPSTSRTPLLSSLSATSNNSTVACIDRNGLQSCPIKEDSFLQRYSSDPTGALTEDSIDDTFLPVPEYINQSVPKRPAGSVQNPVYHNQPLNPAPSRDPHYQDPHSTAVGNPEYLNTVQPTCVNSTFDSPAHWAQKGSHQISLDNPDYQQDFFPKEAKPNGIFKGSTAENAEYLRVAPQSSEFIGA

SMILES	IC50 [µM]
O=C(CCCCCC(=O)Nc1ccc(O)c(C(=O)Nc2ccc(F)c(F)c2)c1)NO	> 100
O=C(CCCCCC(=O)Nc1ccc(O)c(C(=O)Nc2ccc(F)c(Cl)c2)c1)NO	> 100
C#Cc1cccc(NC(=O)c2cc(NC(=O)CCCCCCC(=O)NO)ccc2O)c1	> 100
C#Cc1cccc(NC(=O)c2cc(NC(=O)CCCCCC(=O)NO)ccc2O)c1	> 100
O=C(CCCCCC(=O)Nc1ccc(O)c(C(=O)Nc2cccc(C(F)(F)F)c2)c1)NO	> 100
C#Cc1cccc(NC(=O)c2cccc(NC(=O)CCCCCC(=O)NO)c2)c1	> 100
O=C(CCCCCC(=O)Nc1ccc(O)c(C(=O)Nc2ccc(Cl)c(C(F)(F)F)c2)c1)NO	> 100
O=C(CCCCCC(=O)Nc1ccc(O)c(C(=O)Nc2ccc(OCc3cccc(F)c3)c(Cl)c2)c1)NO	> 100
O=C(CCCCCC(=O)Nc1ccc(O)c(C(=O)Nc2cccc(F)c2)c1)NO	> 100
O=C(CCCCCC(=O)Nc1ccc(O)c(C(=O)Nc2ccc(Cl)c(Cl)c2)c1)NO	> 100
